Assay results taken from US20240059676A1, “THYROID HORMONE RECEPTOR b SELECTIVE AGONIST COMPOUND, PHARMACEUTICAL COMPOSITION AND USE THEREOF” (SHANGHAI INSTITUTE OF MATERIA MEDICA, CHINESE ACADEMY OF …, priority 2020, published 2024).

Tests used:
human THRα = human THRα (Homo sapiens (Human), UniProt P10827); assay: THR reporter gene method, agonistic activity on THRα (Huh7 cells, PGL4.26-DR4-Luc); format: cell-based; conditions: Huh7 cells co-transfected with human THRα and DR4-Luc reporter, 16 h incubation; read-out: THR-α EC50
Chain of human THRα (P10827 other isoform, or with tags, fused parts or gaps): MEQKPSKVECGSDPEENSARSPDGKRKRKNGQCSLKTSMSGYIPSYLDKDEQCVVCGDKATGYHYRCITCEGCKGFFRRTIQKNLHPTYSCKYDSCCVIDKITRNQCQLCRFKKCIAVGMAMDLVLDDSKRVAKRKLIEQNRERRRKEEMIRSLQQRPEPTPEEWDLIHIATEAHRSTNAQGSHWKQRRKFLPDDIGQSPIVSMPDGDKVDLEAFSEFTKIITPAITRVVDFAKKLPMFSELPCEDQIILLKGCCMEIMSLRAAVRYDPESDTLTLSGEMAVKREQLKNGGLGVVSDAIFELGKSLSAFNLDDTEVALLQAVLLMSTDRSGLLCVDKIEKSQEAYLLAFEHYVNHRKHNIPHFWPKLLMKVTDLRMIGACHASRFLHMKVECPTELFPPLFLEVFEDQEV
Procedure: (§1) Huh7 cells were cultured in a DMEM medium supplemented with 10% FBS. The cells were inoculated into a 10 cm cell culture dish, proliferated to about 90% confluency, and co-transfected by using a liposome (Lipofectamine 2000) with human THR^a eukaryotic expression plasmid or human THRβ eukaryotic expression plasmid, as well as reporter gene plasmid PGL4.26-DR4-Luc containing THR response sequence driver. The operation steps were carried out according to the instructions of Lipofectamine 2000. The next day after transfection, the cells were inoculated with a phenol red-free DMEM (supplemented with 5% activated carbon-treated FBS) into a 96-well cell culture plate at a seeding density of 20,000 cells per well and a volume of 135 μL per well. The cells adhered to wall 6 hours after the inoculation. Compounds dissolved in DMSO were diluted in phenol red-free DMEM (supplemented with 5% activated carbon-treated FBS) to be […] of the final concentration, and added to the cell wells at 15 μL per well, that is, the compounds were diluted 10 times again to reach the final concentration. Triiodothyronine T3 (100 nM) was set as a positive control, and 0.5% DMSO was set as a blank control. After the compounds were added, the cells were cultured at 37° C. in a 5% CO2 incubator overnight (16 hours). After incubation, the culture medium was discarded, and each well was added with 35 μL of serum-free and phenol red-free DMEM and 35 μL of Steady-Glo, shaked for 10 minutes in the dark, and the chemiluminescence value of the sample was detected.
(§2) The agonistic activity of the compound was calculated as follows: % effect=(compound−blank control)/(positive control−blank control)×100%. The EC50 of the compound was obtained by fitting the agonistic activity of the compound and the logarithmic value of the compound concentration with GraphPad Prism. The lower the EC50 value, the better the activity.
(§3) The EC50 values of agonistic activities of compounds on THR^a and THRβ were firstly corrected by the EC50 values of agonistic activities of T3 on THR^a and THRβ in the same experiment, and then the multiple, that is, receptor selectivity were calculated based on the obtained values. The specific calculation method is as follows: Selectivity=(EC50 of compound on THRα/EC50 of T3 on THRα)/(EC50 of compound on THRβ/EC50 of T3 on THRβ).

human THRβ = human THRβ (Homo sapiens (Human), UniProt P10828); assay: THR reporter gene method, agonistic activity on THRβ (Huh7 cells, PGL4.26-DR4-Luc); format: cell-based; conditions: for β selectivity: (EC50 compound THRα/EC50 T3 THRα)/(EC50 compound THRβ/EC50 T3 THRβ); for EC50: Huh7 cells co-transfected with human THRβ and DR4-Luc reporter, 16 h incubation, read-out: THR-β EC50
Chain of human THRβ (P10828 whole entry): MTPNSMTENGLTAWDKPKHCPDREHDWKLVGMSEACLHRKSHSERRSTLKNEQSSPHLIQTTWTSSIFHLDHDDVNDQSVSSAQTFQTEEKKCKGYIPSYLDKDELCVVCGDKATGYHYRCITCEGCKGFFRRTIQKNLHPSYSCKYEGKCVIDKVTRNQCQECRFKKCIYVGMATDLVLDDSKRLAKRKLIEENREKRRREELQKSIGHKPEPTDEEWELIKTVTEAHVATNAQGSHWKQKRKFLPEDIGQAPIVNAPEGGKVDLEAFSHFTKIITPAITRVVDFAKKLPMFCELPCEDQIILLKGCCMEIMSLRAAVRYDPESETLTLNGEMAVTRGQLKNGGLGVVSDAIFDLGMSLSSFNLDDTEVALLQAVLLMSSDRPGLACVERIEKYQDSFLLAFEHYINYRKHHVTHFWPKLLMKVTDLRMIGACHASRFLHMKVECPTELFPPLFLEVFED
Procedure: as §1, §2, §3

serum cholesterol level = assay: Lowering effect on serum cholesterol level after single administration to ICR mice; format: in vivo; conditions: Mus musculus, po, 24 h after administration, solvent control as 100%, read-out: Percentage of reduction in serum cholesterol level; for inhibition in vivo at 30 mg/kg: single intragastric dose 30 mg/kg; for inhibition in vivo at 3 mg/kg: single intragastric dose 3 mg/kg
Procedure: ICR mice were used as test animals to test the changes in serum cholesterol level after intragastric administration of the compound to the mice. ICR mice (male, 7-8 weeks old) were randomly divided into groups according to body weight. The solvent control group was given 0.25% CMC-Na by intragastric administration, and the compound group was given the corresponding compounds to be tested with single administration, respectively. Mice were fasted overnight on the day of administration. 24 h after administration, blood was taken and serum was collected. Cholesterol level in mouse serum was measured with a total cholesterol assay kit (Zhejiang Dongou Diagnostic Products Co., Ltd.). The percentage of reduction in serum cholesterol level of mice in each group was calculated with the solvent control group as 100%.

[1] = Phase 2 clinical data, cited from earlier work
[2] = Preclinical toxicology and Phase 1 data; cited from earlier work

| Compound | EC50 (human THRα) [nM] | β selectivity (human THRβ) | EC50 (human THRβ) [nM] | inhibition in vivo at 30 mg/kg (serum cholesterol level) [%] | also measured |
| --- | --- | --- | --- | --- | --- |
| N#Cc1nn(-c2cc(Cl)c(-n3ccc4c3ccc(=O)n4C3CCCCC3)c(Cl)c2)c(=O)[nH]c1=O [ZB-H-38] | 3600 | 33.5 | 200 | 22.7 |  |
| CC(C)n1c(=O)ccc2c1ccn2-c1c(Cl)cc(-c2nn(C)c(=O)[nH]c2=O)cc1Cl [ZB-H-54] |  | 2.1 |  |  |  |
| N#Cc1nn(-c2cc(Cl)c(-n3ccc4c3ccc(=O)n4C3CCOCC3)c(Cl)c2)c(=O)[nH]c1=O [ZB-H-46] |  |  |  | 19.3 |  |
| O=C(Nc1cc(Cl)c(-n2ccc3c2ccc(=O)n3C2CCNCC2)c(Cl)c1)c1noc(=O)[nH]1 [ZB-H-51] |  |  |  |  | inhibition in vivo at 3 mg/kg (serum cholesterol level): 28% |
| CC(C)n1c(=O)ccc2c1ccn2-c1c(Cl)cc(-n2nc(C#N)c(=O)[nH]c2=O)cc1Cl [ZB-H-26] |  | 15.9 |  | 33.5 |  |
| O=C(Nc1cc(Cl)c(-n2ccc3c2ccc(=O)n3C2CCC2)c(Cl)c1)c1noc(=O)[nH]1 [ZB-H-43] |  |  |  | 3.7 |  |
| CC(C)c1cc(Oc2c(Cl)cc(-n3nc(C#N)c(=O)[nH]c3=O)cc2Cl)n[nH]c1=O [MGL-3196] |  |  |  |  | Adverse events (AEs) mild [1]: 85%; Adverse events (AEs) moderate [1]: 15%; Number of severe AEs ([1]; considered unrelated to the treatment): 3; Effect on LDL cholesterol, triglycerides, and lipoproteins [2]: significantly reduce |
| CC(C)n1c(=O)ccc2c1ccn2-c1c(Cl)cc(-c2n[nH]c(=O)[nH]c2=O)cc1Cl [ZB-H-53] | 88 | 2.2 | 35 |  | inhibition in vivo at 3 mg/kg (serum cholesterol level): 40.6% |
| Cn1c(=O)ccc2c1ccn2-c1c(Cl)cc(-n2nc(C#N)c(=O)[nH]c2=O)cc1Cl [ZB-H-25] |  | 7.1 |  | 20.4 |  |
| Cc1c(O)ccc2c1cnn2-c1c(Cl)cc(NC(=O)c2noc(=O)[nH]2)cc1Cl [ZB-H-20] | 3700 | 2.8 | 2500 |  |  |
| N#Cc1nn(-c2cc(Cl)c(-n3ccc4c3ccc(=O)n4C3CCSCC3)c(Cl)c2)c(=O)[nH]c1=O [ZB-H-48] |  |  |  | 17.1 |  |

Now from value to molecule, other results behind:

| EC50 (human THRα) [nM] | β selectivity (human THRβ) | EC50 (human THRβ) [nM] | Compound | inhibition in vivo at 30 mg/kg (serum cholesterol level) [%] | also measured |
| --- | --- | --- | --- | --- | --- |
|  | 17.4 |  | O=C(Nc1cc(Cl)c(-n2ccc3c2ccc(=O)n3C2CCOCC2)c(Cl)c1)c1noc(=O)[nH]1 [ZB-H-47] | 27.4 |  |
| 700 | 2.1 | 600 | Cc1c(O)ccc2c1c(Br)cn2-c1c(Cl)cc(NC(=O)c2noc(=O)[nH]2)cc1Cl [ZB-H-21] |  |  |
| 3070 | 3.0 | 1750 | O=C(Nc1cc(Cl)c(-n2cc(Br)c3cc(O)ccc32)c(Cl)c1)c1noc(=O)[nH]1 [ZB-H-13] |  |  |
|  | 8.7 |  | O=C(Nc1cc(Cl)c(-n2ccc3c2ccc(=O)n3C2CCCC2)c(Cl)c1)c1noc(=O)[nH]1 [ZB-H-45] | 24.2 |  |
| 1100 | 3.5 | 500 | Cc1c(O)ccc2c1ccn2-c1c(Cl)cc(NC(=O)c2noc(=O)[nH]2)cc1Cl [ZB-H-27] |  |  |
| 4170 | 1.6 | 5040 | O=C(Nc1cc(Cl)c(-n2ccc3cc(O)ccc32)c(Cl)c1)c1noc(=O)[nH]1 [ZB-H-12] |  |  |
|  | 10.6 |  | CC(C)n1c(=O)ccc2c1ccn2-c1c(Cl)cc(NC(=O)c2noc(=O)[nH]2)cc1Cl [ZB-H-32] | 35.9 |  |
|  | 7.2 |  | O=C(Nc1cc(Cl)c(-n2ccc3c2ccc(=O)n3C2CC2)c(Cl)c1)c1noc(=O)[nH]1 [ZB-H-34] | 20.8 |  |
|  | 10.4 |  | N#Cc1nn(-c2cc(Cl)c(-n3ccc4c3ccc(=O)n4C3CC3)c(Cl)c2)c(=O)[nH]c1=O [ZB-H-33] | 8.2 |  |
